Patent US20230201426A1, “GEL COMPOSITION AND PRODUCTION METHOD THEREFOR, AND THREE-DIMENSIONAL TISSUE BODY AND PRODUCTION METHOD THEREFOR” (TOPPAN INC., priority 2020, published 2023)

Tested on: human mammary gland cancer cells (MDA-MB-231)
Assay: Viability of cells cultured after mixing the cell suspension with the Pt^2+ solution alone
Format: cell-based
Conditions: final concentration of Pt^2+ 0.05 mM to 0.5 mM

[Cl][Pt-2]([Cl])([Cl])[Cl].[K+].[K+] [Pt^2+ solution, Potassium tetrachloroplatinate(II) (K2PtCl4)]
cytotoxicity: significant cytotoxicity was not recognized
